Data on three compounds can be found in PMC8370248, “Key Metabolic Enzymes Involved in Remdesivir Activation in Human Lung Cells” (Antimicrobial Agents and Chemotherapy, 2021).

Where two headings read alike, the source gives them in different places.

One series deals with NHBE cells. The series is described as follows: Effect of hydrolase inhibitors on GS-443902 formation from RDV in NHBE cells. Format: cell-based, human. The note with it: coincubation with 1 μM RDV, 24 h, three donors.
Another series concerns CES1. Also noted: method as in PMID 20801890, PMID 25870059. The note with it: published data ref 7, 9; cited from earlier work.
In series [1] the target is T1, HINT1 (Homo sapiens, UniProt P49773).
T1 construct: purchased Abcam (Cambridge, MA)
As to the kind of experiment: HINT1-catalyzed hydrolysis of RDV MetX, inhibition. Format: biochemical. The procedure: Following protein precipitation and centrifugation, 150 μl of supernatants were dried down and reconstituted with 250 μl water. All samples were analyzed by LC-MS, and PAR values were used for quantification. Disappearance of the MetX substrate was monitored over the incubation time period. Three experiments were conducted with two replicates each experiment, and data are reported as averages from three experiments.
(§1) Data were analyzed using GraphPad Prism 8.0. IC50 values were calculated by nonlinear regression analysis using the following sigmoidal dose-response (variable slope) equation (four-parameter logistic equation). Y=100/[1+10^(logIC50−X)×HillSlope] where X is the log of the concentration of the test compound, and Y is the response. The IC50 values were calculated as an average of three or more independent experiments.

Series [2] addresses T2, CatA (Homo sapiens, UniProt P10619).
T2 sequence (P10619 29-326 limits assumed): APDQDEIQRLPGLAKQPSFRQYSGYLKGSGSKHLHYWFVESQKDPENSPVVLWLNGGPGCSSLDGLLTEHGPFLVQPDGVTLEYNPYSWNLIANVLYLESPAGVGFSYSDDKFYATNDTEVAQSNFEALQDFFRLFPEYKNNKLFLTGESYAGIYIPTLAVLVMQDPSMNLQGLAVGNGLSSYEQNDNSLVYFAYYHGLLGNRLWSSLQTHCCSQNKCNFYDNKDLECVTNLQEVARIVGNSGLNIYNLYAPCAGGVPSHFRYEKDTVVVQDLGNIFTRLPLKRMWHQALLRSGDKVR
T2 sequence (P10619 327-480 limits assumed): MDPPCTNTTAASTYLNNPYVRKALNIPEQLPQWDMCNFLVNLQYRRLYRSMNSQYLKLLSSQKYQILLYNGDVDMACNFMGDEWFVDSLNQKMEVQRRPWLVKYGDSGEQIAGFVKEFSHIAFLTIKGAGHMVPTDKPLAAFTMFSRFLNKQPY
As to the kind of experiment: CatA-catalyzed hydrolysis of fluorogenic peptide substrate, inhibition. It is filed as biochemical. The arrangement: purchased R&D Systems (Minneapolis, MN). Here is the method:
The reaction was studied under both pH 6.5 (to match CatA-catalyzed RDV reaction conditions with minimal acidic hydrolysis) and pH 5.5 (to mimic acidic lysosomal environment). CatA was initially activated following the manufacturer’s protocol. […] Threefold dilutions of compounds were prepared in 100% DMSO. The final DMSO concentration was kept constant at 1% (vol/vol). […] The slopes of the progress curves were used to measure reaction rates. Reaction rates were plotted as a function of inhibitor concentration, and the data were fit with a four-parameter logistic fit using GraphPad Prism software to yield IC50 values.
as §1

A further series addresses T3, CES1c (Homo sapiens, UniProt P23141).
T3 construct: purchased Corning Incorporated (Corning, NY); host or cells: baculovirus-infected insect cells (microsomal fraction, Supersomes)
T3 sequence (P23141 18-566 isoform P23141-3 limits assumed): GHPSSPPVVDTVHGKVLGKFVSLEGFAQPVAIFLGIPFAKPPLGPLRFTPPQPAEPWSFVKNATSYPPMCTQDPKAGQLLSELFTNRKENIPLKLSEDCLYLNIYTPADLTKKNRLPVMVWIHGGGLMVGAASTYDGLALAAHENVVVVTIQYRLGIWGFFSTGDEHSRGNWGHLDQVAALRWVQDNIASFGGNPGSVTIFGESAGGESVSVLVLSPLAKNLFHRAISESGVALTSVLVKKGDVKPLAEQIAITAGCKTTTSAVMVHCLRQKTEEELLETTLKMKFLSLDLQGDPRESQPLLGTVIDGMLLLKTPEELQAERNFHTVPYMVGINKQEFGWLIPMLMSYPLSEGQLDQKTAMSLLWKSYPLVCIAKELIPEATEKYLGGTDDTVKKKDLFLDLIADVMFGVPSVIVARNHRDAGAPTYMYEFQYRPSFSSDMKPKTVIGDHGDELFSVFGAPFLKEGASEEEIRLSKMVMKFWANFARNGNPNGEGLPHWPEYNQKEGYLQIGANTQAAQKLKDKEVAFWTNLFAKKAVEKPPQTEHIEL
The series is described as follows: CES1c-catalyzed hydrolysis of 4-NPA, inhibition by inhibitors. Format: biochemical. Here is the method:
(§2) Threefold dilutions of compounds were prepared in 100% DMSO. Compounds (100 μM to 0.005 μM), CES isozymes, and substrate 4-NPA were mixed in a 100-μl reaction volume consisting of 100 mM potassium phosphate buffer (pH 7.4) and 1% DMSO. […] The slopes of the progress curves were used to calculate reaction rates. Reaction rates were plotted as a function of inhibitor concentration, and the data were fit with a four-parameter logistic model using GraphPad Prism software (version 8; La Jolla, CA) to yield IC50 values.
as §1

The next series addresses T4, CES1b (Homo sapiens, UniProt P23141).
T4 construct: purchased Corning Incorporated (Corning, NY); host or cells: baculovirus-infected insect cells (microsomal fraction, Supersomes)
T4 sequence (P23141 18-567): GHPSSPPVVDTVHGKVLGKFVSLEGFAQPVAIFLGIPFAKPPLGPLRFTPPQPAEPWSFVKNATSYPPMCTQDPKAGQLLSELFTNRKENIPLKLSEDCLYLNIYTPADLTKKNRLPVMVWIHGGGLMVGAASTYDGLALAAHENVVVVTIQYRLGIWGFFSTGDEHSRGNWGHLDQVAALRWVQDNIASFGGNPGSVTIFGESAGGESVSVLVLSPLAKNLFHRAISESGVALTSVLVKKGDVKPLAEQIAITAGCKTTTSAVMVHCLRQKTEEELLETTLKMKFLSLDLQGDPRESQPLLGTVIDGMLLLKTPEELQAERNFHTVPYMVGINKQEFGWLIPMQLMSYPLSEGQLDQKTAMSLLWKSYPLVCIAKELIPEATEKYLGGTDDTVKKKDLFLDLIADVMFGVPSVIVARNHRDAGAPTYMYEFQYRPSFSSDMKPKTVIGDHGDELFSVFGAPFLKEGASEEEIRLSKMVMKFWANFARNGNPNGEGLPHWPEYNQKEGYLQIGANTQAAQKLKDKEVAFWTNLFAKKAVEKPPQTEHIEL
The series is described as follows: CES1b-catalyzed hydrolysis of 4-NPA, inhibition by inhibitors. It is filed as biochemical. The procedure:
as §2, §1

For the next series, the system named is SARS-CoV-2. The series is described as follows: microbe, parasite or virus in culture. It is filed as cell-based. The note with it: compound alone (plus DMSO), A549-hACE2 cells, 48 h.
The nature of series [3]: A549-hACE2 cytotoxicity analysis. The note with it: human, A549-hACE2 cells.
Protocol: The cytotoxicity of compounds was determined in A549-hACE2 cells in the following manner. A549-hACE2 cells (12,000 cells per well in medium containing 2% FBS) were plated into a black opaque 96-well plate (Corning). The next day, 3-fold serial dilutions of compounds were prepared in DMSO in a manner to normalize the DMSO concentration among all cell culture wells. The compounds were further diluted 500-fold in the culture medium containing 2% FBS. Spent medium from overnight incubation was aspirated, 100 μl of diluted compound solutions were added to each well, and cultures were returned to 37°C with 5% CO2. […] Luciferase signals were measured using an Envision microplate reader. The relative luciferase signals were calculated by normalizing the luciferase signals of the compound-treated groups to that of the DMSO-treated groups (set as 100%). The relative luciferase signal (y axis) versus the compound concentration (x axis) was plotted in software GraphPad Prism 8 (version 8). […] Three independent experiments were performed with technical duplicates.
For series [4], the system named is CatA. The arrangement: method as in PMID 20801890, PMID 25870059. The note with it: published data ref 7, 9; cited from earlier work.
The target in the next series is T5, CES2 (Homo sapiens, UniProt O00748).
T5 construct: purchased Corning Incorporated (Corning, NY); host or cells: baculovirus-infected insect cells (microsomal fraction, Supersomes)
T5 sequence (O00748 27-559): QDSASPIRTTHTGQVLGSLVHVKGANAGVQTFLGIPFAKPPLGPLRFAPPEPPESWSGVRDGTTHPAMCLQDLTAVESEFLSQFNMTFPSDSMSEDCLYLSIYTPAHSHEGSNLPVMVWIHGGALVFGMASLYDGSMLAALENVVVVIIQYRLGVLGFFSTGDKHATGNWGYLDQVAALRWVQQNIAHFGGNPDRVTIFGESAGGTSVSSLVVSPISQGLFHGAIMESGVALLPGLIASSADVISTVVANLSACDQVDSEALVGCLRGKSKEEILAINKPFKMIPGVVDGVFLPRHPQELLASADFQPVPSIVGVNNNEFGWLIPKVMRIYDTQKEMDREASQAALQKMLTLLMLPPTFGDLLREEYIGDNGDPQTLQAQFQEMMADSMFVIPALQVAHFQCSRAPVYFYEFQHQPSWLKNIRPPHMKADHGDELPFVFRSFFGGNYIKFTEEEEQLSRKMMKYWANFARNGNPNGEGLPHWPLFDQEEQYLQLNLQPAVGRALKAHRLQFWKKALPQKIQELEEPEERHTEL
As to the kind of experiment: CES2-catalyzed hydrolysis of 4-NPA, inhibition by inhibitors. Format: biochemical. The procedure: as §2, §1

Series [5] concerns the target HINT1. Also noted: method as in PMID 31503445. The note with it: previously reported by Shah et al. ref 17; read-out: dissociation constant [Kd], HINT1; cited from earlier work.
Series [6] deals with cellular activation of sofosbuvir (SOF). The series is described as follows: Effect of HINT1 inhibitors on cellular activation of sofosbuvir. It is filed as cell-based. The note with it: data not shown.
[7] abbreviates: substrate RDV MetX, read-out: Inhibition (IC50) of enzyme activities, HINT1.
The mark [8] stands for this setting: pH 5.5, fluorogenic peptide substrate, read-out: Inhibition (IC50) of enzyme activities, CatA pH 5.5.
Setting [9] is: pH 6.5, fluorogenic peptide substrate, read-out: Inhibition (IC50) of enzyme activities, CatA pH 6.5.
Where [10] appears, read: substrate 4-NPA, read-out: Inhibition (IC50) of enzyme activities, CES1c.
Setting [11] is: substrate 4-NPA, read-out: Inhibition (IC50) of enzyme activities, CES1b.

T1 sequence (P49773 whole entry): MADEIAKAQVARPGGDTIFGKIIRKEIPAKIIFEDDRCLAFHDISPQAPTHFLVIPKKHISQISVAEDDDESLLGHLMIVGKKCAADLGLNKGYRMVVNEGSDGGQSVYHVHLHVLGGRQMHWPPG
Protocol for NHBE cells: Cells were harvested at 24 h after compound addition, and the GS-443902 levels were assessed by an LC-MS method.
NHBE cells (5 × 10^5) in 2 ml of BEGM media were seeded in each well of a 6-well plate and incubated overnight at 37°C and 5% CO2. […] Twenty-four hours post-compound addition, the cells were washed 3× with 1 ml of cold 1× Tris-HCl (pH 7.0)-buffered saline, and cells were harvested in 500 μl dry ice-cold extraction buffer (0.1% potassium hydroxide and 67 mM ethylenediamine tetra-acetic acid in 70% methanol, containing 0.5 μM chloro-ATP as internal standard) and transferred to a deep-well block on dry ice. The deep-well block was stored at −80°C until processing. At the time of harvest, two untreated wells for each donor were trypsinized, and the cell counts were determined. All compound combinations were tested in duplicate in cells from three donors.
Each NHBE sample was treated with 500 μl of dry ice-cold extraction buffer (0.1% potassium hydroxide and 67 mM ethylenediamine tetra-acetic acid in 70% methanol, containing 0.5 μM chloro-ATP as internal standard). The above solution was vortexed for 5 min and then centrifuged at 20,000 × g for 10 min. The supernatant was transferred to a clean 96-deep-well plate and then dried on an evaporator. Once dry, samples were reconstituted with 80 μl of 1 mM ammonium phosphate buffer (pH 7) and transferred to a 96-short-well plate for analysis. An aliquot of 10 μl was injected into a Sciex QTrap 6500+ liquid chromatography-tandem mass spectrometry (LC-MS/MS) system run under the multiple reaction monitoring (MRM) operation mode.
Standard calibration curves for NHBE were constructed based on pmol of compound per sample. […] Using the calibration curve, the amount of the metabolites was quantified in each sample, and the intracellular concentrations (pmol/million cells) were determined by dividing the value by the cell number in the sample.

As for `O=[N+]([O-])c1ccc(OP(=O)(O)Oc2ccc([N+](=O)[O-])cc2)cc1` [BNPP, bis(4-nitrophenyl)phosphate], in the series with NHBE cells, the “Effect on GS-443902 formation in NHBE cells” value (shortened to “Effect on GS-443902 formation”) is “did not cause a significant change in GS-443902 formation”. For the same compound, the IC50 – broadly, the point on the concentration scale where inhibition reaches its midpoint – in the series with CES1 was 0.11 µM; at HINT1 [1] (setting [7]) it was more than 100 µM; on CatA [2] (setting [8]), more than 100 µM; at CatA [2] (setting [9]) it was more than 100 µM; on CES1c (setting [10]), 14 ± 5.6 µM; at CES1b (setting [11]) it was 0.75 ± 0.12 µM.
Take `CCC[C@H](NC(=O)[C@@H]1[C@H]2CCC[C@H]2CN1C(=O)[C@@H](NC(=O)[C@@H](NC(=O)c1cnccn1)C1CCCCC1)C(C)(C)C)C(=O)C(=O)NC1CC1` [Telaprevir]: the EC50 (usually the midpoint of the concentration-response curve) in the series with SARS-CoV-2 is more than 50 µM. Moreover, the CC50 (as a rule, the concentration at which the toxic effect on the cells reaches its halfway point) at 48 h in [3] was 29.2 µM. Further, the IC50 in the series with CatA [4] was 0.21 µM; against HINT1 [1], more than 100 µM; at CatA [2] (IC50 values range for CatA, range over pH 6.5 and pH 5.5), 0.078 to 0.34 µM; at CatA [2] (Inhibition (IC50) of enzyme activities, CatA pH 5.5, pH 5.5, fluorogenic peptide substrate), 0.34 ± 0.06 µM; at CatA [2] (Inhibition (IC50) of enzyme activities, CatA pH 6.5, pH 6.5, fluorogenic peptide substrate), 0.078 ± 0.009 µM; at CES1c it was more than 100 µM. Also, the IC50 against CES1b and against CES2 was more than 100 µM throughout. Besides, the “Effect on GS-443902 formation” value in the series with NHBE cells is “dose-dependent inhibition of GS-443902 formation”.
Take `Nc1nc2c(ncn2[C@@H]2O[C@H](COC(=O)NCCc3c[nH]c4ccccc34)[C@@H](O)[C@H]2O)c(=O)[nH]1` [TrpGc]: the Kd (usually a measure of binding affinity in units of concentration) at HINT1 [5] was 3.65 µM. Besides, the “Effect on GS-443902 formation” value in the series on NHBE cells is recorded as “neither of them significantly altered”. In addition, the IC50 was 1.5 ± 0.5 µM on HINT1 [1] (setting [7]); more than 100 µM at CatA [2] (setting [8]); more than 100 µM at CatA [2] (setting [9]); more than 100 µM at CES1c (setting [10]); more than 100 µM at CES1b (setting [11]); more than 100 µM on CES2 (substrate 4-NPA, read-out: Inhibition (IC50) of enzyme activities, CES2). The “Effect on cellular activation of sofosbuvir (SOF)” value in [6] was “neither TrpGc nor compound 7”.
